Results from patent US20040019018A1, “Rigid pyrrolidone modulators of pkc” (priority 2003, published 2004).

Key:
sAPP = details: cited from earlier work
PC12 cells = details: cited from earlier work
113pS K+ channels = details: cited from earlier work
[1] = system: LNCaP prostate cancer cells; experiment: Induction of apoptosis in LNCaP prostate cancer cells (DAPI staining); type: cell-based
Procedure: The capacity of inducing apoptosis by compound (1) was evaluated in a model of LNCaP prostate cancer cells. It is well established that in this model phorbol esters (e.g., PMA) activate PKC to induce apoptosis (reference 13). LNCaP cells were treated with compound (1) for 1 h, and apoptosis was assessed 24 h later.
Control cells or cells infected for 14 h with adenoviruses for LacZ, PKCα, or PKCδ (multiplicity of infection=10 pfu/cell) were treated with different concentrations of compound (1) or PMA for 1 h. Cells were collected 24 h later and stained with DAPI. The incidence of apoptosis in each preparation was analyzed by counting 500 cells and determining the percentage of apoptotic cells. Results are the mean±standard error of three independent experiments.
It is well established that PKCα and PKCδ are the isozymes that mediate phorbol ester-induced apoptosis in LNCaP cells (references 13c-e). A model that has been used to assess isozyme-specificity is the overexpression of specific PKCs by an adenoviral system. Infection of LNCaP cells with adenoviruses for PKCs leads to a high expression of the corresponding PKC isozyme, as determined by Western-blot analysis, kinase activity, or [^3H]PDBu binding (reference 13e).

## CN[C@@H]1C[C@H]2O[C@@](C)([C@@H]1OC)n1c3ccccc3c3c4c(c5c6ccccc6n2c5c31)C(=O)NC4 [Staurosporine]
sAPP; control and AD fibroblasts
  effect on BL-induced sAPP secretion: eliminated the effects of BL

## CCCCCCCCC#Cc1ccc2c(c1)C[C@@H](CO)NC(=O)[C@H](C(C)C)N2C [BL, (2S, 5S)-8-(1-decynyl)benzolactam]
PC12 cells
  sAPP secretion: ~3 fold
sAPP; control fibroblasts, 10 μM BL
  sAPP secretion in control fibroblasts: significant increases of sAPP secretion
sAPP; fibroblasts
  sAPP secretion over basal levels: enhance sAPP secretion over basal levels
113pS K+ channels
  responsiveness of AD fibroblast cell lines to the TEA challenge: restored the responsiveness

## CCCCCCCCCCCCCC(=O)O[C@@H]1[C@@H](C)[C@@]2(O)[C@@H](C=C(CO)C[C@]3(O)C(=O)C(C)=C[C@@H]23)[C@@H]2C(C)(C)[C@]12OC(C)=O [PMA, reference compound]
[1]; LNCaP cells infected with LacZ adenovirus
  apoptotic effect with control adenovirus: did not affect the apoptotic effect
[1]; LNCaP cells infected with adenoviruses for PKCα or PKCδ
  apoptotic response with overexpression of PKC isozymes: marked potentation
